# Source: patent US20260007687A1, “A[…] EMULSION INJECTION AND METHOD FOR PREPARING SAME” (JIANGSU NHWA PHARMACEUTICAL CO., LTD, priority 2022, published 2026)
# How the values were obtained:
# [1] = background statement; cited from earlier work
# [2] = ED50 of alphaxalone (basis of the dose in the histamine test); conditions: in vivo
# [3] = system: histamine content in mouse plasma; assay: Mouse histamine release: plasma histamine content (ELISA) 30 min after intravenous injection; conditions: mice
# Method: Overall test method: the corresponding solution or formulation was prepared. Administration was performed by intravenous injection, and blood was collected 30 min after administration. After anticoagulation with EDTA, the blood was centrifuged to collect the plasma, and the histamine content in mouse plasma was measured with an ELISA kit.
# Blank plasma: blood was directly collected from mice and centrifuged.
# Normal saline: normal saline was injected at an administration volume of 5 mL/kg.
# Blank fat emulsion (20% medium-long-chain fat emulsion): the administration volume was 5 mL/kg.
# SBE-β-CD: the preparation method was: 0.7 mL of 13% SBE-β-CD+4.3 mL of normal saline, and the administration volume was 5 mL/kg. […] Cremophor EL: 0.7 mL of Cremophor EL+4.3 mL of normal saline, the concentration of Cremophor EL was 0.14 mL/mL, the dose was 5 mL/kg, and the dose of Cremophor EL was 0.7 mL/kg.
# SBE-β-CD & Cremophor EL: 0.7 mL of 13% SBE-β-CD+0.7 mL of Cremophor EL+3.6 mL of normal saline, and the administration volume was 5 mL/kg.
# The administration volume was 3.5 mL/kg, the dose was 7 mg/kg; the administration amount of castor oil was 0.245 mL/kg.
compound,measurement,setting,value
C[C@]12CC[C@@H](O)C[C@@H]1CC[C@H]1[C@@H]3CC[C@H](C(=O)CO)[C@@]3(C)CC(=O)[C@@H]12 [alphadolone],potency of alphadolone relative to alphaxalone,[1],half
CC(=O)[C@H]1CC[C@H]2[C@@H]3CC[C@H]4C[C@H](O)CC[C@]4(C)[C@H]3C(=O)C[C@]12C [alphaxalone],ED50 of alphaxalone,[2],about 3.5 mg/kg
sulfobutyl-β-cyclodextrin [SBE-β-CD],Plasma histamine concentration,[3],15.28 ± 2.33 ng/mL
